Assay [1] deals with EeAChE (Electrophorus electricus acetylcholinesterase) (Electrophorus electricus, UniProt O42275). As to the kind of experiment: AChE inhibition assay. The assay is classed as biochemical, electric eel.
Another assay has as its target hBACE 1 (Homo sapiens, UniProt P56817). The experiment in a line: BACE 1 FRET inhibition assay. The format is biochemical. Conditions: human BACE 1.
Where [2] appears, read: hBACE 1 IC50 (μM) ± SD, mean ± SD, n = 3, FRET assay.

Like-named read-outs stand apart in the source and are kept apart here.

Broadly, the IC50 is the concentration that inhibits the measured activity by half.

Chain of EeAChE (Electrophorus electricus acetylcholinesterase) (O42275 24-633): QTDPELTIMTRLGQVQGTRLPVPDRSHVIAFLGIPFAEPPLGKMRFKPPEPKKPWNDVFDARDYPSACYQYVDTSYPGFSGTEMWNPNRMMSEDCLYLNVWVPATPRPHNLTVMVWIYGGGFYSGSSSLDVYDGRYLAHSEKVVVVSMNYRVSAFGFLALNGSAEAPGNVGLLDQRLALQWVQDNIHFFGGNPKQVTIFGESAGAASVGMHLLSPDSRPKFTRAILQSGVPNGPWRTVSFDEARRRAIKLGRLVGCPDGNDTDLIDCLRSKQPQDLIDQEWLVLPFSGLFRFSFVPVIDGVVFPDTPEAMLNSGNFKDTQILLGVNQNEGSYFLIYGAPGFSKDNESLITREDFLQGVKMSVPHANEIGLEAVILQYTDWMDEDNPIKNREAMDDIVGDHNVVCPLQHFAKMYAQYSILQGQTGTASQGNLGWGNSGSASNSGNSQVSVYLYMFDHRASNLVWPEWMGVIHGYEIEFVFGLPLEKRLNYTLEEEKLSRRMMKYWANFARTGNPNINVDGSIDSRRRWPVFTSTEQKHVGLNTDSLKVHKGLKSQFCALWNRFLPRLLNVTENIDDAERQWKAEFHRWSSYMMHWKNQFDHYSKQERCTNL
Chain of hBACE 1 (P56817 46-501): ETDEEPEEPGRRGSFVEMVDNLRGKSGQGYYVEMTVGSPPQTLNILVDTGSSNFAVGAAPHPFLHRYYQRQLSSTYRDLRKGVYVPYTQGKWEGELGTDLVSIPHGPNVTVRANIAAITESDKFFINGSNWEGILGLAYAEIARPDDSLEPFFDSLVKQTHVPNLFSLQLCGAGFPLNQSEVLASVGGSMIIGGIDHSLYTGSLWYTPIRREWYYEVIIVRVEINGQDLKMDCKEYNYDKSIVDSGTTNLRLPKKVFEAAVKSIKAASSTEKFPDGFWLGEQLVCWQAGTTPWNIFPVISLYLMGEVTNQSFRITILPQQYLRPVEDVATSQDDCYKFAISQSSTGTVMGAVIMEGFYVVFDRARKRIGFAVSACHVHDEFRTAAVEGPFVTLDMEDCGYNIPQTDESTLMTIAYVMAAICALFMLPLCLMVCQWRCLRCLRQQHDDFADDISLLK

In the case of `[H]/N=C(/N)NN=C(/C=C/c1ccc(C(F)(F)F)cc1)c1cn(Cc2ccc(CCCC)cc2)c2ccccc12` [Compound 3j, (Z)-2-((E)-1-(1-(4-Butylbenzyl)-1H-indol-3-yl)-3-(4-(trifluoromethyl)phenyl)allylidene)hydrazine-1-carboximidamide], the IC50 in assay [1] was 13.4 ± 0.49 µM; at hBACE 1 (setting [2]), 182.4 ± 1.41 µM; at hBACE 1 (hBACE 1 PIC50 (μM)), 182 µM.
Regarding `[H]/N=C(/N)NN=C(/C=C/c1ccc(Br)cc1)c1cn(Cc2ccccc2)c2ccccc12` [Compound 1i, (Z)-2-((E)-1-(1-Benzyl-1H-indol-3-yl)-3-(4-bromophenyl)allylidene)hydrazine-1-carboximidamide], the IC50 in assay [1] is 73.1 ± 2.07 µM; against hBACE 1 (setting [2]), 97.83 ± 0.31 µM; at hBACE 1 (hBACE 1 PIC50 (μM)), 97.7 µM.
Regarding `[H]/N=C(/N)NN=C(/C=C/c1ccccc1[N+](=O)[O-])c1cn(Cc2ccccc2)c2ccccc12` [Compound 1n, (Z)-2-((E)-1-(1-Benzyl-1H-indol-3-yl)-3-(2-nitrophenyl)allylidene)hydrazine-1-carboximidamide], the 50% inhibitory concentration (IC50) in assay [1] is 216 ± 3.61 µM; at hBACE 1 (setting [2]), 12.3 ± 0.6 µM; against hBACE 1 (hBACE 1 PIC50 (μM)), 12.3 µM.
Take `[H]/N=C(/N)NN=C(/C=C/c1cccc(OCc2ccccc2)c1)c1cn(Cc2ccccc2)c2ccccc12` [Compound 1o, (Z)-2-((E)-1-(1-Benzyl-1H-indol-3-yl)-3-(3-(benzyloxy)phenyl)allylidene)hydrazine-1-carboximidamide]: the figures for the half-inhibitory concentration (IC50) (in assay [1]; against hBACE 1 (setting [2]); at hBACE 1 (hBACE 1 PIC50 (μM))) were 126.6 ± 0.99 µM, 12.8 ± 0.42 µM and 12.9 µM, respectively.
Take `[H]/N=C(/N)NN=C(/C=C/c1ccc(C(C)(C)C)cc1)c1cn(Cc2ccc(C(F)(F)F)cc2)c2ccccc12` [Compound 3k, (Z)-2-((E)-3-(4-(tert-Butyl)phenyl)-1-(1-(4-(trifluoromethyl)benzyl)-1H-indol-3-yl)allylidene)hydrazine-1-carboximidamide]: the half-inhibitory concentration (IC50) in assay [1] was 207 ± 7.64 µM; at hBACE 1 (setting [2]) it was 139 ± 1.98 µM; against hBACE 1 (hBACE 1 PIC50 (μM)) it was 138 µM.
As to `[H]/N=C(/N)NN=C(/C=C/c1ccccc1)c1cn(Cc2cc(C(F)(F)F)cc(C(F)(F)F)c2)c2ccccc12` [Compound 2c, (Z)-2-((E)-1-(1-(3,5-Bis(trifluoromethyl)benzyl)-1H-indol-3-yl)-3-phenylallylidene)hydrazine-1-carboximidamide], the concentration for half-maximal inhibition (IC50) in assay [1] was 56.6 ± 0.98 µM; at hBACE 1 (setting [2]), 70 ± 0.87 µM; against hBACE 1 (hBACE 1 PIC50 (μM)) it was 70.8 µM.
As for `[H]/N=C(/N)NN=C(/C=C/c1ccc(OC)c(OC)c1)c1cn(Cc2cc(OC)cc(OC)c2)c2ccccc12` [Compound 3b, (Z)-2-((E)-1-(1-(3,5-Dimethoxybenzyl)-1H-indol-3-yl)-3-(3,4-dimethoxyphenyl)allylidene)hydrazine-1-carboximidamide], the concentration for half-maximal inhibition (IC50) is 22 ± 0.65 µM in assay [1], 198 ± 3.18 µM at hBACE 1 (setting [2]) and 200 µM at hBACE 1 (hBACE 1 PIC50 (μM)).
As for `[H]/N=C(/N)NN=C(/C=C/c1ccccc1)c1cn(Cc2ccc(Br)cc2F)c2ccccc12` [Compound 2i, (Z)-2-((E)-1-(1-(4-Bromo-2-fluorobenzyl)-1H-indol-3-yl)-3-phenylallylidene)hydrazine-1-carboximidamide], the IC50 in assay [1] is 42.6 ± 1.58 µM; against hBACE 1 (setting [2]), 185.95 ± 0.07 µM; against hBACE 1 (hBACE 1 PIC50 (μM)), 186 µM.
In the case of `[H]/N=C(/N)NN=C(/C=C/c1cc(OC)ccc1OC)c1cn(Cc2ccccc2)c2ccccc12` [Compound 1j, (Z)-2-((E)-1-(1-Benzyl-1H-indol-3-yl)-3-(2,5-dimethoxyphenyl)allylidene)hydrazine-1-carboximidamide], the concentration for half-maximal inhibition (IC50) is 61 ± 2.29 µM in assay [1], 72.2 ± 1.76 µM at hBACE 1 (setting [2]) and 72.4 µM at hBACE 1 (hBACE 1 PIC50 (μM)).
`[H]/N=C(/N)NN=C(/C=C/c1cc(OC)ccc1OC)c1cn(Cc2ccc(CCCC)cc2)c2ccccc12` [Compound 3l, (Z)-2-((E)-1-(1-(4-Butylbenzyl)-1H-indol-3-yl)-3-(2,5-dimethoxyphenyl)allylidene)hydrazine-1-carboximidamide]: the IC50 in assay [1] was 58.4 ± 0.91 µM; on hBACE 1 (setting [2]) it was 196 ± 3.04 µM; on hBACE 1 (hBACE 1 PIC50 (μM)), 195 µM.
With `[H]/N=C(/N)NN=C(/C=C/c1ccccc1)c1cn(Cc2ccc(F)cc2F)c2ccccc12` [Compound 2a, (Z)-2-((E)-1-(1-(2,4-Difluorobenzyl)-1H-indol-3-yl)-3-phenylallylidene)hydrazine-1-carboximidamide], the values for the IC50 (in assay [1]; against hBACE 1 (setting [2]); against hBACE 1 (hBACE 1 PIC50 (μM))) were 46.4 ± 1.63 µM, 200.1 ± 1.98 µM and 200 µM, respectively.
As for `[H]/N=C(/N)NN=C(/C=C/c1ccc(C(C)C)cc1)c1cn(Cc2ccccc2)c2ccccc12` [Compound 1d, (Z)-2-((E)-1-(1-Benzyl-1H-indol-3-yl)-3-(4-isopropylphenyl)allylidene)hydrazine-1-carboximidamide], the half-maximal inhibitory concentration (IC50) in assay [1] was 146 ± 3.18 µM; against hBACE 1 (setting [2]), 11.7 ± 0.15 µM; on hBACE 1 (hBACE 1 PIC50 (μM)), 11.7 µM.
The corresponding values for `[H]/N=C(/N)NN=C(/C=C/c1ccccc1)c1cn(Cc2ccccc2C#N)c2ccccc12` [Compound 2e, (Z)-2-((E)-1-(1-(2-Cyanobenzyl)-1H-indol-3-yl)-3-phenylallylidene)hydrazine-1-carboximidamide] are 44.02 ± 0.19 µM, 197 ± 2.42 µM and 195 µM.
On to `[H]/N=C(/N)NN=C(/C=C/c1ccc(N(C)C)cc1)c1cn(Cc2ccccc2)c2ccccc12` [Compound 1g, (Z)-2-((E)-1-(1-Benzyl-1H-indol-3-yl)-3-(4-(dimethylamino)phenyl)allylidene)hydrazine-1-carboximidamide], for which the half-maximal inhibitory concentration (IC50) was 78.2 ± 2.28 µM in assay [1], 89 ± 2.29 µM against hBACE 1 (setting [2]) and 89.1 µM against hBACE 1 (hBACE 1 PIC50 (μM)).
Consider `[H]/N=C(/N)NN=C(/C=C/c1ccc(C(C)(C)C)cc1)c1cn(Cc2ccc(C(C)(C)C)cc2)c2ccccc12` [Compound 3h, (Z)-2-((E)-1-(1-(4-(tert-Butyl)benzyl)-1H-indol-3-yl)-3-(4-(tert-butyl)phenyl)allylidene)hydrazine-1-carboximidamide], for which the results for the IC50 (in assay [1]; at hBACE 1 (setting [2]); on hBACE 1 (hBACE 1 PIC50 (μM))) were 55.7 ± 3.17 µM, 179.2 ± 0.78 µM and 178 µM, respectively.
In the case of `[H]/N=C(/N)NN=C(/C=C/c1ccc(Cl)cc1)c1cn(Cc2ccccc2)c2ccccc12` [Compound 1q, (Z)-2-((E)-1-(1-Benzyl-1H-indol-3-yl)-3-(4-chlorophenyl)allylidene)hydrazine-1-carboximidamide], the half-maximal inhibitory concentration (IC50) in assay [1] was 82.6 ± 1.92 µM; against hBACE 1 (setting [2]) it was 16.5 ± 0.39 µM; against hBACE 1 (hBACE 1 PIC50 (μM)) it was 16.6 µM.
As for `[H]/N=C(/N)NN=C(/C=C/c1ccc(C(F)(F)F)cc1)c1cn(Cc2ccc(C(F)(F)F)cc2)c2ccccc12` [Compound 3a, (Z)-2-((E)-1-(1-(4-(Trifluoromethyl)benzyl)-1H-indol-3-yl)-3-(4-(trifluoromethyl)phenyl)allylidene)hydrazine-1-carboximidamide], the “EeAChE PIC50” value in assay [1] (AChE from electric eel) was 4.42 µM. Besides, the IC50 in assay [1] (read-out: EeAChE IC50 (μM) ± SD, mean ± SD, n = 3, AChE from electric eel, Ellman assay) was 38.4 ± 3.46 µM; on hBACE 1 (read-out: hBACE 1 IC50 (μM) ± SD, mean ± SD, n = 3, FRET assay) it was 222.3 ± 0.49 µM. For the same compound, the “hBACE 1 PIC50” value on hBACE 1 was determined as 3.65 µM.
For `[H]/N=C(/N)NN=C(/C=C/c1ccccc1)c1cn(Cc2cc(OC)cc(OC)c2)c2ccccc12` [Compound 2g, (Z)-2-((E)-1-(1-(3,5-Dimethoxybenzyl)-1H-indol-3-yl)-3-phenylallylidene)hydrazine-1-carboximidamide], the half-inhibitory concentration (IC50) is 55.6 ± 0.72 µM in assay [1], 83.4 ± 1.93 µM against hBACE 1 (setting [2]) and 83.2 µM against hBACE 1 (hBACE 1 PIC50 (μM)).
Turning to `[H]/N=C(/N)NN=C(/C=C/c1ccc(OCc2ccccc2)cc1)c1cn(Cc2ccc(C)cc2)c2ccccc12` [Compound 3e, (Z)-2-((E)-3-(4-(Benzyloxy)phenyl)-1-(1-(4-methylbenzyl)-1H-indol-3-yl)allylidene)hydrazine-1-carboximidamide], the IC50 is 144 ± 1.77 µM in assay [1], 107 ± 2.55 µM on hBACE 1 (setting [2]) and 107 µM on hBACE 1 (hBACE 1 PIC50 (μM)).
For `[H]/N=C(/N)NN=C(/C=C/c1ccccc1)c1cn(Cc2cccc(C#N)c2)c2ccccc12` [Compound 2j, (Z)-2-((E)-1-(1-(3-Cyanobenzyl)-1H-indol-3-yl)-3-phenylallylidene)hydrazine-1-carboximidamide], in that order: 75.91 ± 0.32 µM, 178.2 ± 0.92 µM and 178 µM.
For the compound `[H]/N=C(/N)NN=C(/C=C/c1ccc(C(C)(C)C)cc1)c1cn(Cc2ccc(Br)cc2)c2ccccc12` [Compound 3g, (Z)-2-((E)-1-(1-(4-Bromobenzyl)-1H-indol-3-yl)-3-(4-(tert-butyl)phenyl)allylidene)hydrazine-1-carboximidamide], the IC50 in assay [1] is 156 ± 2.62 µM; against hBACE 1 (setting [2]) it was 178.2 ± 0.92 µM; at hBACE 1 (hBACE 1 PIC50 (μM)) it was 178 µM.
Turning to `[H]/N=C(/N)NN=C(/C=C/c1ccc(C(C)(C)C)cc1)c1cn(Cc2ccc(-c3ccccc3)cc2)c2ccccc12` [Compound 3c, (Z)-2-((E)-1-(1-([1,1′-Biphenyl]-4-ylmethyl)-1H-indol-3-yl)-3-(4-(tert-butyl)phenyl)allylidene)hydrazine-1-carboximidamide], the half-inhibitory concentration (IC50) in assay [1] is 16.6 ± 1.04 µM; against hBACE 1 (setting [2]), 201 ± 3.82 µM; against hBACE 1 (hBACE 1 PIC50 (μM)), 200 µM.
On to `[H]/N=C(/N)NN=C(/C=C/c1ccccc1)c1cn(Cc2ccccc2F)c2ccccc12` [Compound 2h, (Z)-2-((E)-1-(1-(2-Fluorobenzyl)-1H-indol-3-yl)-3-phenylallylidene)hydrazine-1-carboximidamide], for which the concentration for half-maximal inhibition (IC50) in assay [1] is 62.86 ± 0.62 µM; against hBACE 1 (setting [2]), 143.2 ± 0.21 µM; against hBACE 1 (hBACE 1 PIC50 (μM)) it was 145 µM.
Consider `[H]/N=C(/N)NN=C(/C=C/c1ccc(C#N)cc1)c1cn(Cc2ccccc2)c2ccccc12` [Compound 1l, (Z)-2-((E)-1-(1-Benzyl-1H-indol-3-yl)-3-(4-cyanophenyl)allylidene)hydrazine-1-carboximidamide], for which the IC50 in assay [1] was 60.9 ± 2.53 µM; at hBACE 1 (setting [2]), 9.38 ± 0.5 µM; on hBACE 1 (hBACE 1 PIC50 (μM)) it was 9.33 µM.
For `[H]/N=C(/N)NN=C(/C=C/c1ccccc1)c1cn(Cc2ccc(C(F)(F)F)cc2)c2ccccc12` [Compound 2b, (Z)-2-((E)-3-Phenyl-1-(1-(4-(trifluoromethyl)benzyl)-1H-indol-3-yl)allylidene)hydrazine-1-carboximidamide], the half-maximal inhibitory concentration (IC50) in assay [1] was 56 ± 2.44 µM; on hBACE 1 (setting [2]), 102 ± 1.06 µM; against hBACE 1 (hBACE 1 PIC50 (μM)) it was 102 µM.

These data come from PMC11287240 (RSC Advances, 2024).
